{"source": "patent US20230146675A1", "about": "“PYRIMIDO[5,4-d]PYRIMIDINE DERIVATIVES AS ENT INHIBITORS FOR THE TREATMENT OF CANCERS, AND COMBINATION THEREOF WITH ADENOSINE RECEPTOR ANTAGONISTS” (ITEOS BELGIUM SA, priority 2020, published 2023)"}
{"target": "T1, human ENT1 (Homo sapiens, UniProt Q99808)", "T1 sequence (Q99808 1-456)": "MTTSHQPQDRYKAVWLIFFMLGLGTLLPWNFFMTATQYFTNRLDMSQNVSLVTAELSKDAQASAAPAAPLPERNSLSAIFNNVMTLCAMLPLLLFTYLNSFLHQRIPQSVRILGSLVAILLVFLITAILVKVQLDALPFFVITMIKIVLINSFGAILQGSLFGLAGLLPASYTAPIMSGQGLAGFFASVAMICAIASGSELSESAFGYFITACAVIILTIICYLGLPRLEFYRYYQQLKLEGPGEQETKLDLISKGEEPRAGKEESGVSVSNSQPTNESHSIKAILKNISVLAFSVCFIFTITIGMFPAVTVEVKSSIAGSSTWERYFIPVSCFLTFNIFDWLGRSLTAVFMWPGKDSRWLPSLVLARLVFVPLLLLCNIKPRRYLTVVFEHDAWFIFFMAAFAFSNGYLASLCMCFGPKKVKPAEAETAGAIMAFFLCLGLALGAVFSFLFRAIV", "experiment": "ENT1 binding assay (competition with Sahenta-DY647 on JAR cells)", "design": "JAR cells expressing ENT1 were bought from ATCC; host or cells: JAR cells", "details": "binned IC50", "method": "Purpose. […] By measuring the fluorescence at the end of the assay we could assess the binding potency of the compounds of the present invention.\nJAR cells were resuspended in the described buffer. Compounds of the present invention and Sahenta-DY647 were diluted 200× in the described buffer.\nThe total volume of the reaction was 100 μL (50 μL of cells, 25 μL of the compounds of the present invention and 25 μL of Sahenta-DY647) in a 96 well plate, U-bottom (Greiner®, #650-180). The plates were washed 2× by centrifugation (4 min, 400 rcf at 4° C.) in the same buffer.", "units": {"IC50": "nM"}}
{"compound": "COCCN(CCOC)c1nc(N2CCC(OC)CC2)c2nc(N(CCO)CCO)nc(N3CCN(C4CC4)C(=O)C3)c2n1", "note": "[Compound 315, 4-(2-(bis(2-hydroxyethyl)amino)-6-(bis(2-methoxyethyl)amino)-8-(4-methoxypiperidin-1-yl)pyrimido[5,4-d]pyrimidin-4-yl)-1-cyclopropylpiperazin-2-one]", "IC50": "500 to 1000"}
{"compound": "COCCN(CCOC)c1nc(N2CCS(=O)(=O)CC2)c2nc(N(CCOC)CCOC)nc(NCc3ccccc3)c2n1", "note": "[Compound 7]", "IC50": "< 100"}
{"compound": "COCCN(CCOC)c1nc(N2CCC(OC)CC2)c2nc(OCc3ccnc(C)c3)nc(N3CCC(OC)CC3)c2n1", "note": "[Compound 262, N,N-bis(2-methoxyethyl)-4,8-bis(4-methoxypiperidin-1-yl)-6-((2-methylpyridin-4-yl)methoxy)pyrimido[5,4-d]pyrimidin-2-amine]", "IC50": "100 to 500"}
{"compound": "COCCN(CCOC)c1nc(N2CCC(OC)CC2)c2nc(N(CCOC)CCOC)nc(NCc3cccc(OC)c3)c2n1", "note": "[Compound 48, N4-(3-methoxybenzyl)-N2,N2,N6,N6-tetrakis(2-methoxyethyl)-8-(4-methoxypiperidin-1-yl)pyrimido[5,4-d]pyrimidine-2,4,6-triamine]", "IC50": "< 100"}
{"compound": "COCCN(CCOC)c1nc(N2CCC(OC)CC2)c2nc(N(CCOC)CCOC)nc(NCC3CCOC3)c2n1", "note": "(stereo not drawn) [Compound 57, N2,N2,N6,N6-tetrakis(2-methoxyethyl)-8-(4-methoxypiperidin-1-yl)-N4-((tetrahydrofuran-3-yl)methyl)pyrimido[5,4-d]pyrimidine-2,4,6-triamine]", "IC50": "500 to 1000"}
{"compound": "COCCN(CCOC)c1nc(N2CCn3nc(C)nc3C2)c2nc(N(CCO)CCO)nc(N3CCC(OC)CC3)c2n1", "note": "[Compound 323, 2,2′-((6-(bis(2-methoxyethyl)amino)-4-(4-methoxypiperidin-1-yl)-8-(2-methyl-5,6-dihydro-[1,2,4]triazolo[1,5-a]pyrazin-7(8H)-yl)pyrimido[5,4-d]pyrimidin-2-yl)azanediyl)bis(ethan-1-ol)]", "IC50": "100 to 500"}
{"compound": "COCCN(CCOC)c1nc(N2CCN(c3nccs3)CC2)c2nc(N(CCOC)CCOC)nc(N3CCN(c4nccs4)CC3)c2n1", "note": "[Compound 1, N2,N2,N6,N6-tetrakis(2-methoxyethyl)-4,8-bis(4-(thiazol-2-yl)piperazin-1-yl)pyrimido[5,4-d]pyrimidine-2,6-diamine]", "IC50": "< 100"}
{"compound": "COCCN(CCOC)c1nc(N2CCN(c3ncn(C)n3)CC2)c2nc(N(CCOC)CCOC)nc(NCc3cccc(C#N)c3)c2n1", "note": "[Compound 224, 3-(((2,6-bis(bis(2-methoxyethyl)amino)-8-(4-(1-methyl-1H-1,2,4-triazol-3-yl)piperazin-1-yl)pyrimido[5,4-d]pyrimidin-4-yl)amino)methyl)benzonitrile]", "IC50": "< 100"}
{"compound": "COCCCN(CCCOC)c1nc(N2CCC(OC)CC2)c2nc(N(CCCO)CCCO)nc(N3CCN(C)C(=O)C3)c2n1", "note": "[Compound 329, 4-(2-(bis(3-hydroxypropyl)amino)-6-(bis(3-methoxypropyl)amino)-8-(4-methoxypiperidin-1-yl)pyrimido[5,4-d]pyrimidin-4-yl)-1-methylpiperazin-2-one]", "IC50": "< 100"}
{"compound": "COCCN(CCOC)c1nc(N2CCC(OC)CC2)c2nc(N(CCOC)CCOC)nc(N3CCC(O)CC3)c2n1", "note": "[Compound 71, 1-(2,6-bis(bis(2-methoxyethyl)amino)-8-(4-methoxypiperidin-1-yl)pyrimido[5,4-d]pyrimidin-4-yl)piperidin-4-ol]", "IC50": "100 to 500"}
{"compound": "COCCN(CCOC)c1nc(N2CCC(OC)CC2)c2nc(N(CCOC)CCOC)nc(NCc3ccnc(N)c3)c2n1", "note": "[Compound 147, N4-((2-aminopyridin-4-yl)methyl)-N2,N2,N6,N6-tetrakis(2-methoxyethyl)-8-(4-methoxypiperidin-1-yl)pyrimido[5,4-d]pyrimidine-2,4,6-triamine]", "IC50": "500 to 1000"}
{"compound": "COCCN(CCOC)c1nc(N2CCN(c3cccnc3)CC2)c2nc(N(CCOC)CCOC)nc(N3CCC(OC)CC3)c2n1", "note": "[Compound 118, N2,N2,N6,N6-tetrakis(2-methoxyethyl)-4-(4-methoxypiperidin-1-yl)-8-(4-(pyridin-3-yl)piperazin-1-yl)pyrimido[5,4-d]pyrimidine-2,6-diamine]", "IC50": "100 to 500"}
